Experimental data taken from patent US20110112124A1, “FUNGICIDAL COMPOSITIONS” (SYNGENTA CROP PROTECTION, INC., priority 2008, published 2011).
Where two headings read alike, the source gives them in different places.

Tests used:
[1] = tested on: Botryotinia fuckeliana (Botrytis cinerea); test: Example B16: liquid culture test, gray mould; assay type: cell-based
[2] = tested on: Mycosphaerella graminicola (Septoria tritici); test: Example B6: liquid culture test, Septoria blotch; assay type: cell-based
[3] = tested on: Botryotinia fuckeliana (Botrytis cinerea); test: Example B11: liquid culture test, gray mould; assay type: cell-based
[4] = tested on: Fusarium culmorum; assay type: cell-based
[5] = tested on: Sclerotinia sclerotiorum; test: Example B3: liquid culture test, cottony rot; assay type: cell-based
[6] = tested on: Botryotinia fuckeliana (Botrytis cinerea); test: Example B1: liquid culture test, gray mould; assay type: cell-based
[7] = tested on: Mycosphaerella graminicola (Septoria tritici); test: Example B17: liquid culture test, Septoria blotch; assay type: cell-based
[8] = tested on: Sclerotinia sclerotiorum; test: Example B8: liquid culture test, cottony rot; assay type: cell-based
[9] = tested on: Mycosphaerella arachidis (Cercospora arachidicola); test: Example B4: liquid culture test, early leaf spot; assay type: cell-based
[10] = tested on: Plasmopara viticola; test: Example B18: grape leaf disc preventative test
Description: Leaf disks or leaf segments of various plant species were cut from plants grown in the greenhouse. The cut leaf disks or segments were placed in multiwell plates (24-well format) onto water agar. The leaf disks were sprayed with a test solution before (preventative) or after (curative) inoculation. Compounds to be tested were prepared as DMSO solutions (max. 10 mg/ml) which were diluted to the appropriate concentration with 0.025% Tween20 just before spraying. The inoculated leaf disks or segments were incubated under defined conditions (temperature, relative humidity, light, etc.) according to the respective test system. A single evaluation of disease level was carried out 3-9 days after inoculation, depending on the pathosystem. Percent disease control relative to the untreated check leaf disks or segments was then calculated.
The leaf disks were inoculated with a spore suspension of the fungus 1 day after application. The inoculated leaf disks were incubated at 19° C. and 80% rh under a light regime of 12 h light/12 h darkness in a climate cabinet and the activity of a compound was assessed as percent disease control compared to untreated when an appropriate level of disease damage appears in untreated check leaf disks (6-8 days after application).

[11] = tested on: Mycosphaerella graminicola (Septoria tritici); test: Example B13: liquid culture test, Septoria blotch; assay type: cell-based
[12] = tested on: Tapesia yallundae W-type (Pseudocercosporella herpotrichoides); test: Example B5: liquid culture test, eyespot; assay type: cell-based
[13] = tested on: Thanatephorus cucumeris (Rhizoctonia solani); test: Example B15: liquid culture test, foot rot, damping-off; assay type: cell-based
[14] = tested on: Tapesia yallundae W-type (Pseudocercosporella herpotrichoides); test: Example B14: liquid culture test, eyespot; assay type: cell-based
[15] = tested on: Tapesia yallundae W-type (Pseudocercosporella herpotrichoides); test: Example B10: liquid culture test, eyespot; assay type: cell-based
[16] = tested on: Tapesia yallundae W-type (Pseudocercosporella herpotrichoides); test: Example B7: liquid culture test, eyespot; assay type: cell-based
[17] = tested on: Mycosphaerella graminicola (Septoria tritici); test: Example B9: liquid culture test, Septoria blotch; assay type: cell-based
[18] = tested on: Pythium ultimum; test: Example B2: liquid culture test, seedling damping off; assay type: cell-based

COC(c1ccc(Cl)cc1Cl)C(C)NC(=O)c1cn(C)nc1C(F)F (racemic) [Comp. 1.001, 3-difluoromethyl-1-methyl-1H-pyrazole-4-carboxylic acid [2-(2,4-dichlorophenyl)-2-methoxy-1-methyl-ethyl]-amide] was tested, and the “% action” value ([1]; 0.016 ppm) was 0%, the “% action” value ([1]; 0.031 ppm) was 0% and the “% action” value ([1]; 0.063 ppm) was 20%. The “% action” value ([1]; 0.125 ppm) was 20%, the “% action” value ([2]; 0.156 ppm) was 70% and the “% action” value ([2]; 0.313 ppm) was 90%. The “% action” value ([3]; 0.031 ppm) was 0%, the “% action” value ([3]; 0.063 ppm) was 0% and the “% action” value ([3]; 0.125 ppm) was 20%. For the same compound, the “% action” value ([3]; 0.250 ppm) was 20%, the “% action” value ([3]; 0.500 ppm) was 50% and the “% action” value ([4]; 0.063 ppm) was 0%. The “% action” value ([4]; 0.125 ppm) was 0%, the “% action” value ([4]; 0.250 ppm) was 0% and the “% action” value ([4]; 0.500 ppm) was 0%. The “% action” value ([4]; 1.000 ppm) was 0%, the “% action” value ([4]; 2.000 ppm) was 20% and the “% action” value ([5]; 0.313 ppm) was 20%. For the same compound, the “% action” value ([5]; 0.625 ppm) was 50%, the “% action” value ([5]; 1.250 ppm) was 70% and the “% action” value ([6]; 0.063 ppm) was 20%. The “% action” value ([6]; 0.125 ppm) was 20%, the “% action” value ([6]; 0.250 ppm) was 50% and the “% action” value ([6]; 0.500 ppm) was 50%. The “% action” value ([6]; 1.000 ppm) was 70%, the “% action” value ([7]; 0.016 ppm) was 0% and the “% action” value ([7]; 0.031 ppm) was 0%. The “% action” value ([7]; 0.063 ppm) was 20%, the “% action” value ([7]; 0.125 ppm) was 50% and the “% action” value ([8]; 0.078 ppm) was 0%. For the same compound, the “% action” value ([8]; 0.156 ppm) was 0%, the “% action” value ([8]; 0.313 ppm) was 20% and the “% action” value ([8]; 0.625 ppm) was 50%. For the same compound, the “% action” value ([8]; 1.250 ppm) was 70%, the “% action” value ([9]; 0.039 ppm) was 0% and the “% action” value ([9]; 0.078 ppm) was 20%. For the same compound, the “% action” value ([10]; 0.625 ppm) was 0%, the “% action” value ([10]; 1.250 ppm) was 0% and the “% action” value ([10]; 2.500 ppm) was 0%. The “% action” value ([10]; 5.000 ppm) was 7%, the “% action” value ([10]; 10.000 ppm) was 0% and the “% action” value ([11]; 0.078 ppm) was 20%. For the same compound, the “% action” value ([11]; 0.156 ppm) was 70%, the “% action” value ([12]; 0.156 ppm) was 0% and the “% action” value ([12]; 0.313 ppm) was 20%. The “% action” value ([12]; 0.625 ppm) was 50%, the “% action” value ([12]; 1.250 ppm) was 70% and the “% action” value ([13]; 0.250 ppm) was 0%. For the same compound, the “% action” value ([13]; 0.500 ppm) was 0%, the “% action” value ([13]; 1.000 ppm) was 0% and the “% action” value ([13]; 2.000 ppm) was 0%. For the same compound, the “% action” value ([14]; 0.156 ppm) was 20%, the “% action” value ([14]; 0.313 ppm) was 20% and the “% action” value ([14]; 0.625 ppm) was 50%. For the same compound, the “% action” value ([14]; 1.250 ppm) was 70%, the “% action” value ([15]; 0.078 ppm) was 0% and the “% action” value ([15]; 0.156 ppm) was 0%. The “% action” value ([15]; 0.313 ppm) was 20%, the “% action” value ([15]; 0.625 ppm) was 20% and the “% action” value ([15]; 1.250 ppm) was 50%. For the same compound, the “% action” value ([16]; 0.039 ppm) was 0%, the “% action” value ([16]; 0.078 ppm) was 0% and the “% action” value ([16]; 0.156 ppm) was 20%. The “% action” value ([16]; 0.313 ppm) was 20%, the “% action” value ([16]; 0.625 ppm) was 50% and the “% action” value ([16]; 1.250 ppm) was 70%. For the same compound, the “% action” value ([17]; 0.078 ppm) was 20%, the “% action” value ([17]; 0.156 ppm) was 70% and the “% action” value ([18]; 2.500 ppm) was 0%. For the same compound, the “% action” value ([18]; 5.000 ppm) was 0%, the “% action” value ([18]; 10.000 ppm) was 0% and the “% action” value ([18]; 20.000 ppm) was 0%.

For CO/C=C(/C(=O)OC)c1ccccc1Oc1cc(Oc2ccccc2C#N)ncn1 [Azoxystrobin, azoxystrobin], the “% action” value ([5]; 0.625 ppm) was 0%, the “% action” value ([5]; 1.250 ppm) was 20% and the “% action” value ([5]; 2.500 ppm) was 20%. For the same compound, the “% action” value ([5]; 5.000 ppm) was 50%, the “% action” value ([6]; 0.063 ppm) was 0% and the “% action” value ([6]; 0.125 ppm) was 20%. For the same compound, the “% action” value ([6]; 0.250 ppm) was 20%, the “% action” value ([6]; 0.500 ppm) was 50% and the “% action” value ([6]; 1.000 ppm) was 50%. For the same compound, the “% action” value ([6]; 2.000 ppm) was 50%, the “% action” value ([9]; 0.039 ppm) was 20% and the “% action” value ([9]; 0.078 ppm) was 50%. For the same compound, the “% action” value ([9]; 0.156 ppm) was 70%, the “% action” value ([12]; 0.078 ppm) was 0% and the “% action” value ([12]; 0.156 ppm) was 0%. For the same compound, the “% action” value ([12]; 0.313 ppm) was 20%, the “% action” value ([12]; 0.625 ppm) was 20% and the “% action” value ([12]; 1.250 ppm) was 20%. For the same compound, the “% action” value ([12]; 2.500 ppm) was 20%, the “% action” value ([12]; 5.000 ppm) was 20% and the “% action” value ([18]; 10.000 ppm) was 50%. For the same compound, the “% action” value ([18]; 20.000 ppm) was 70%.

N#Cc1c(Cl)c(Cl)c(Cl)c(C#N)c1Cl [Chlorothalonil, chlorothalonil, reference compound] was tested, and the “% action” value ([8]; 0.156 ppm) was 0%, the “% action” value ([8]; 0.313 ppm) was 20% and the “% action” value ([8]; 0.625 ppm) was 90%. The “% action” value ([15]; 0.156 ppm) was 20%, the “% action” value ([15]; 0.313 ppm) was 20% and the “% action” value ([17]; 0.078 ppm) was 20%. For the same compound, the “% action” value ([17]; 0.156 ppm) was 50%.

In the case of Cc1cc(C2CC2)nc(Nc2ccccc2)n1 [Cyprodinil, cyprodinil], the “% action” value ([2]; 0.156 ppm) was 0%, the “% action” value ([2]; 0.313 ppm) was 0% and the “% action” value ([2]; 0.625 ppm) was 0%. For the same compound, the “% action” value ([2]; 1.250 ppm) was 0%, the “% action” value ([16]; 0.039 ppm) was 0% and the “% action” value ([16]; 0.078 ppm) was 0%. For the same compound, the “% action” value ([16]; 0.156 ppm) was 0%, the “% action” value ([16]; 0.313 ppm) was 0% and the “% action” value ([16]; 0.625 ppm) was 0%. For the same compound, the “% action” value ([16]; 1.250 ppm) was 0%, the “% action” value ([16]; 2.500 ppm) was 0% and the “% action” value ([16]; 5.000 ppm) was 0%.

For N#Cc1c[nH]cc1-c1cccc2c1OC(F)(F)O2 [Fludioxonil, fludioxonil, reference compound], the “% action” value ([3]; 0.063 ppm) was 20%, the “% action” value ([3]; 0.125 ppm) was 70% and the “% action” value ([4]; 0.250 ppm) was 20%. For the same compound, the “% action” value ([4]; 0.500 ppm) was 70%.

For C#CCOc1ccc(CCNC(=O)C(OCC#C)c2ccc(Cl)cc2)cc1OC (stereo not drawn) [Mandipropamid, mandipropamid, reference compound], the “% action” value ([10]; 0.625 ppm) was 30%, the “% action” value ([10]; 1.250 ppm) was 37% and the “% action” value ([10]; 2.500 ppm) was 67%.

CCCC(Cn1cncn1)c1ccc(Cl)cc1Cl (stereo not drawn) [Penconazole, penconazole] was tested, and the “% action” value ([11]; 0.078 ppm) was 0%, the “% action” value ([11]; 0.156 ppm) was 0% and the “% action” value ([11]; 0.313 ppm) was 0%. For the same compound, the “% action” value ([11]; 0.625 ppm) was 20%.

With CC(C)(C)C(O)(CCc1ccc(Cl)cc1)Cn1cncn1 (stereo not drawn) [Tebuconazol, tebuconazole, reference compound] the “% action” value ([14]; 0.625 ppm) was 20%.

With CC(C)C1C2CCC1c1c(NC(=O)c3cn(C)nc3C(F)F)cccc12 (stereo not drawn) [isopyrazam, reference compound] the “% action” value ([1]; 0.031 ppm) was 20%, the “% action” value ([1]; 0.063 ppm) was 20% and the “% action” value ([7]; 0.031 ppm) was 0%. The “% action” value ([7]; 0.063 ppm) was 20%, the “% action” value ([7]; 0.125 ppm) was 70% and the “% action” value ([13]; 0.125 ppm) was 50%. The “% action” value ([13]; 0.250 ppm) was 70%, the “% action” value ([13]; 0.500 ppm) was 70% and the “% action” value ([13]; 1.000 ppm) was 70%. The “% action” value ([13]; 2.000 ppm) was 70%.
